Data as given in patent US8846669B2, “Oxazolidinone derivative and medical composition containing same” (Legochem Biosciences, Inc., priority 2011, dated 2014).
In brackets after ≈: the same amount, converted by molar mass. Read-outs that look alike come from different tables or passages of the source.

Columns and labels:
Assay in all cases: In vitro antibacterial activity, broth microdilution MIC90
Assay type in all cases: cell-based
[1] = test system: Vancomycin Resistant Enterococcus faecalis
Protocol: (§1) MIC90 was measured by broth microdilution method based on CLSI standards [reference: Clinical and Laboratory Standards Institute Document. (2000) Methods for Dilution Antimicrobial Susceptibility Test for Bacteria that Grow Aerobically-Fifth Edition: M7-A5. CLSI, Villanova, Pa.].
(§2) Activities of 12 strains including Staphylococcus aureus, Methicillin Resistant Staphylococcus aureus, Staphylococcus epidermidis, Methicillin Resistant Staphylococcus epidermidis, Enterococcus faecalis, Vancomycin Resistant Enterococcus faecalis, Linezolid and Vancomycin Resistant Enterococcus faecalis, Enterococcus faecium, Vancomycin Resistant Enterococcus faecium, Linezolid and Vancomycin Resistant Enterococcus faecium, and Moraxella catarrhalis, were measured, and results are shown in Table 1 below.
(§3) The final concentration of test material in the antibacterial test was from 0.063 μg/mL (minimum) to 128 μg/mL (maximum), and the final concentration of DMSO used as an excipient was 2.5% (V/V). Linezolid represented by Formula B below (manufactured by Pfizer) was used as a control and bacterial activity thereof was compared with those of the test materials.

Moraxella catarrhalis = test system: Moraxella catarrhalis
Protocol: as §1, §2, §3

Enterococcus faecalis = test system: Enterococcus faecalis
Protocol: as §1, §2, §3

Enterococcus faecium = test system: Enterococcus faecium
Protocol: as §1, §2, §3

[2] = test system: Linezolid and Vancomycin Resistant Enterococcus faecium (strain 10)
Protocol: as §1, §2, §3

[3] = test system: Methicillin Resistant Staphylococcus aureus
Protocol: as §1, §2, §3

[4] = test system: Linezolid and Vancomycin Resistant Enterococcus faecium (strain 11)
Protocol: as §1, §2, §3

[5] = test system: Linezolid and Vancomycin Resistant Enterococcus faecalis
Protocol: as §1, §2, §3

[6] = test system: Staphylococcus epidermidis
Protocol: as §1, §2, §3

[7] = test system: Vancomycin Resistant Enterococcus faecium
Protocol: as §1, §2, §3

Staphylococcus aureus = test system: Staphylococcus aureus
Protocol: as §1, §2, §3

[8] = test system: Methicillin Resistant Staphylococcus epidermidis
Protocol: as §1, §2, §3

[9] = Enterococcus faecalis, strain 6, E. faecalis VanA, read-out: MIC90
[10] = Moraxella catarrhalis, strain 12, M. catarrhalis, read-out: MIC90
[11] = Enterococcus faecalis, strain 5, E. faecalis, read-out: MIC90
[12] = Enterococcus faecium, strain 8, E. faecium, read-out: MIC90
[13] = Enterococcus faecium, strain 10, E. faecium VanA LR, read-out: MIC90
[14] = Staphylococcus aureus, strain 2, S. aureus MR, read-out: MIC90
[15] = Enterococcus faecium, strain 11, E. faecium VanA LR, read-out: MIC90
[16] = Enterococcus faecalis, strain 7, E. faecalis VanA LR, read-out: MIC90
[17] = Staphylococcus epidermidis, strain 3, S. epidermidis, read-out: MIC90
[18] = Enterococcus faecium, strain 9, E. faecium VanA, read-out: MIC90
[19] = Staphylococcus aureus, strain 1, S. aureus, read-out: MIC90
[20] = Staphylococcus epidermidis, strain 4, S. epidermidis MR, read-out: MIC90

Structure (SMILES) | MIC90 [1, 9] | MIC90 (Moraxella catarrhalis; [10]) | MIC90 (Enterococcus faecalis; [11]) | MIC90 (Enterococcus faecium; [12]) | MIC90 [2, 13] | MIC90 [3, 14] | MIC90 [4, 15] | MIC90 [5, 16] | MIC90 [6, 17] | MIC90 [7, 18] | MIC90 (Staphylococcus aureus; [19]) | MIC90 [8, 20] | other results
CC(=O)NC[C@H]1CN(c2ccc(-c3ccc(N4CCNC=N4)nc3)c(F)c2)C(=O)O1 [Compound 53] |  |  |  |  |  |  |  |  |  |  |  |  | MIC90 ([1]; Enterococcus faecalis): 1 µg/mL (≈ 2.42 µM); MIC90 (Moraxella catarrhalis; Moraxella catarrhalis): 4 µg/mL (≈ 9.7 µM); MIC90 (Enterococcus faecalis; Enterococcus faecalis): 1 µg/mL (≈ 2.42 µM); MIC90 (Enterococcus faecium; Enterococcus faecium): 1 µg/mL (≈ 2.42 µM); MIC90 ([2]; Enterococcus faecium): 4 µg/mL (≈ 9.7 µM); MIC90 ([3]; Staphylococcus aureus): 2 µg/mL (≈ 4.85 µM); MIC90 ([4]; Enterococcus faecium): 4 µg/mL (≈ 9.7 µM); MIC90 ([5]; Enterococcus faecalis): 4 µg/mL (≈ 9.7 µM); MIC90 ([6]; Staphylococcus epidermidis): 1 µg/mL (≈ 2.42 µM); MIC90 ([7]; Enterococcus faecium): 1 µg/mL (≈ 2.42 µM); MIC90 (Staphylococcus aureus; Staphylococcus aureus): 1 µg/mL (≈ 2.42 µM); MIC90 ([8]; Staphylococcus epidermidis): 2 µg/mL (≈ 4.85 µM)
CC(=O)NC[C@H]1CN(c2ccc(-c3ccc(N4CCN(C(=O)CO)C=N4)nc3)c(F)c2)C(=O)O1 [Compound 54] |  |  |  |  |  |  |  |  |  |  |  |  | MIC90 ([1]; Enterococcus faecalis): 0.063 µg/mL (≈ 0.134 µM); MIC90 (Moraxella catarrhalis; Moraxella catarrhalis): 1 µg/mL (≈ 2.13 µM); MIC90 (Enterococcus faecalis; Enterococcus faecalis): 0.063 µg/mL (≈ 0.134 µM); MIC90 (Enterococcus faecium; Enterococcus faecium): 0.25 µg/mL (≈ 0.531 µM); MIC90 ([2]; Enterococcus faecium): 0.5 µg/mL (≈ 1.06 µM); MIC90 ([3]; Staphylococcus aureus): 0.5 µg/mL (≈ 1.06 µM); MIC90 ([4]; Enterococcus faecium): 0.5 µg/mL (≈ 1.06 µM); MIC90 ([5]; Enterococcus faecalis): 0.5 µg/mL (≈ 1.06 µM); antibacterial activity against linezolid-resistant bacteria (in words) ([5]; Enterococcus faecalis and Enterococcus faecium which are resistant to linezolid): very high antibacterial activity; MIC90 ([6]; Staphylococcus epidermidis): 0.125 µg/mL (≈ 0.266 µM); MIC90 ([7]; Enterococcus faecium): 0.063 µg/mL (≈ 0.134 µM); MIC90 (Staphylococcus aureus; Staphylococcus aureus): 0.25 µg/mL (≈ 0.531 µM); MIC90 ([8]; Staphylococcus epidermidis): 0.5 µg/mL (≈ 1.06 µM)
CCN1C=NN(c2ccc(-c3ccc(N4C[C@H](CNC(C)=O)OC4=O)cc3F)cn2)CC1 [Compound 56] | 2 µg/mL (≈ 4.54 µM) | 2 µg/mL (≈ 4.54 µM) | 1 µg/mL (≈ 2.27 µM) | 1 µg/mL (≈ 2.27 µM) | 4 µg/mL (≈ 9.08 µM) | 4 µg/mL (≈ 9.08 µM) | 4 µg/mL (≈ 9.08 µM) | 4 µg/mL (≈ 9.08 µM) | 1 µg/mL (≈ 2.27 µM) | 1 µg/mL (≈ 2.27 µM) | 1 µg/mL (≈ 2.27 µM) | 2 µg/mL (≈ 4.54 µM) | 
CC(=O)NC[C@H]1CN(c2ccc(-c3ccc(N4C=NOCC4)nc3)c(F)c2)C(=O)O1 [Compound 57] | 0.25 µg/mL (≈ 0.605 µM) | 2 µg/mL (≈ 4.84 µM) | 0.25 µg/mL (≈ 0.605 µM) | 0.125 µg/mL (≈ 0.302 µM) | 1 µg/mL (≈ 2.42 µM) | 0.5 µg/mL (≈ 1.21 µM) | 2 µg/mL (≈ 4.84 µM) | 1 µg/mL (≈ 2.42 µM) | 0.25 µg/mL (≈ 0.605 µM) | 0.125 µg/mL (≈ 0.302 µM) | 0.25 µg/mL (≈ 0.605 µM) | 0.5 µg/mL (≈ 1.21 µM) | 
O=C1O[C@@H](CNc2ccon2)CN1c1ccc(-c2ccc(N3C=NOCC3)nc2)c(F)c1 [Compound 61] |  |  |  |  |  |  |  |  |  |  |  |  | MIC90 ([1]; strain 6, E. faecalis VanA): 0.5 µg/mL (≈ 1.14 µM); MIC90 (Moraxella catarrhalis; strain 12, M. catarrhalis): 2 µg/mL (≈ 4.56 µM); MIC90 (Enterococcus faecalis; strain 5, E. faecalis): 0.5 µg/mL (≈ 1.14 µM); MIC90 (Enterococcus faecium; strain 8, E. faecium): 0.25 µg/mL (≈ 0.57 µM); MIC90 ([2]; strain 10, E. faecium VanA LR): 2 µg/mL (≈ 4.56 µM); MIC90 ([3]; strain 2, S. aureus MR): 0.25 µg/mL (≈ 0.57 µM); MIC90 ([4]; strain 11, E. faecium VanA LR): 2 µg/mL (≈ 4.56 µM); MIC90 ([5]; strain 7, E. faecalis VanA LR): 2 µg/mL (≈ 4.56 µM); MIC90 ([6]; strain 3, S. epidermidis): 0.25 µg/mL (≈ 0.57 µM); MIC90 ([7]; strain 9, E. faecium VanA): 0.5 µg/mL (≈ 1.14 µM); MIC90 (Staphylococcus aureus; strain 1, S. aureus): 0.063 µg/mL (≈ 0.144 µM); MIC90 ([8]; strain 4, S. epidermidis MR): 0.5 µg/mL (≈ 1.14 µM)

Now from value to molecule, other results behind:

MIC90 [1, 9] | MIC90 (Moraxella catarrhalis; [10]) | MIC90 (Enterococcus faecalis; [11]) | MIC90 (Enterococcus faecium; [12]) | MIC90 [2, 13] | MIC90 [3, 14] | MIC90 [4, 15] | MIC90 [5, 16] | MIC90 [6, 17] | MIC90 [7, 18] | MIC90 (Staphylococcus aureus; [19]) | MIC90 [8, 20] | Structure (SMILES) | other results
0.5 µg/mL (≈ 1.34 µM) | 8 µg/mL (≈ 21.5 µM) | 1 µg/mL (≈ 2.69 µM) | 0.5 µg/mL (≈ 1.34 µM) | 4 µg/mL (≈ 10.7 µM) | 1 µg/mL (≈ 2.69 µM) | 8 µg/mL (≈ 21.5 µM) | 8 µg/mL (≈ 21.5 µM) | 0.5 µg/mL (≈ 1.34 µM) | 1 µg/mL (≈ 2.69 µM) | 0.5 µg/mL (≈ 1.34 µM) | 1 µg/mL (≈ 2.69 µM) | O=C1O[C@@H](CO)CN1c1ccc(-c2ccc(N3C=NOCC3)nc2)c(F)c1 [Compound 58] | 
0.5 µg/mL (≈ 1.16 µM) | 2 µg/mL (≈ 4.66 µM) | 0.5 µg/mL (≈ 1.16 µM) | 0.25 µg/mL (≈ 0.582 µM) | 4 µg/mL (≈ 9.32 µM) | 0.5 µg/mL (≈ 1.16 µM) | 4 µg/mL (≈ 9.32 µM) | 4 µg/mL (≈ 9.32 µM) | 0.25 µg/mL (≈ 0.582 µM) | 0.25 µg/mL (≈ 0.582 µM) | 0.25 µg/mL (≈ 0.582 µM) | 1 µg/mL (≈ 2.33 µM) | COC(=O)NC[C@H]1CN(c2ccc(-c3ccc(N4C=NOCC4)nc3)c(F)c2)C(=O)O1 [Compound 59] | 
0.25 µg/mL (≈ 0.59 µM) | 1 µg/mL (≈ 2.36 µM) | 0.25 µg/mL (≈ 0.59 µM) | 0.125 µg/mL (≈ 0.295 µM) | 1 µg/mL (≈ 2.36 µM) | 0.25 µg/mL (≈ 0.59 µM) | 2 µg/mL (≈ 4.72 µM) | 1 µg/mL (≈ 2.36 µM) | 0.25 µg/mL (≈ 0.59 µM) | 0.125 µg/mL (≈ 0.295 µM) | 0.125 µg/mL (≈ 0.295 µM) | 0.25 µg/mL (≈ 0.59 µM) | O=C1O[C@@H](Cn2ccnn2)CN1c1ccc(-c2ccc(N3C=NOCC3)nc2)c(F)c1 [Compound 60] | 
1 µg/mL (≈ 2.34 µM) | 4 µg/mL (≈ 9.36 µM) | 1 µg/mL (≈ 2.34 µM) | 0.5 µg/mL (≈ 1.17 µM) | 8 µg/mL (≈ 18.7 µM) | 2 µg/mL (≈ 4.68 µM) | 4 µg/mL (≈ 9.36 µM) | 4 µg/mL (≈ 9.36 µM) | 0.5 µg/mL (≈ 1.17 µM) | 1 µg/mL (≈ 2.34 µM) | 0.5 µg/mL (≈ 1.17 µM) | 4 µg/mL (≈ 9.36 µM) | CC(=O)NC[C@H]1CN(c2ccc(-c3ccc(N4CCON=C4C)nc3)c(F)c2)C(=O)O1 [Compound 62] | 
